Results published in PubChem BioAssay AID1963961 (Molecular Pharmacology Branch, DTP, NCI, 2024).
“And” between values parts separate entries of the source, which are not always exact repeats. Identical values can stand only once.

Tested on: K98450-129-R-PDC multicell spheroids, viability
Experiment: Anticancer human tumor K98450-129-R-PDC patient-derived colon adenocarcinoma cell line growth inhibition [PI3K]
Settings: for viability, T/C: stronger effect = lower value
Text: Combinatorial screen of targeted agents with the PI3K inhibitors inavolisib, alpelisib, duvelisib, and copanlisib in multi-cell type tumor spheroids
A high-throughput screen of multi-cell type tumor spheroids was designed to identify active combinations of targeted small molecules and PI3K pathway inhibitors. Complex spheroids include a stromal component modeled by human endothelial cells (HUVEC) and fibroblasts modeled by human mesenchymal stem cells (MSCs). The concentration ranges selected for each drug and investigational agent were based upon clinically achievable concentrations if the clinical Cmax of the agent was known.
Compounds. The drugs and investigational agents: inavolisib (NSC800729), alpelisib (NSC765974), duvelisib (NSC772469), copanlisib (NSC816437), ipatasertib (NSC767898), afuresertib (NSC778305), talazoparib (NSC767125), sapanisertib (NSC764658), selumetinib (NSC741078), tovorafenib (DAY101, NSC766906), vemurafenib (NSC761431), ravoxertinib (NSC781343), sotorasib (NSC818433), MRTX1133 (NSC 836407), abemaciclib (NSC 768073), palbociclib (NSC758247), venetoclax (NSC 766270), SY5609 (NSC837396), enzalutamide (NSC755605), and darolutamide (NSC825331), were obtained from the National Cancer Institute (NCI) Developmental Therapeutics Program Chemical Repository. The FDA-approved anticancer drug set is available from the NCI Developmental Therapeutics Program. […] The stock solutions were prepared in dimethyl sulfoxide (DMSO, Sigma-Aldrich, St. Louis, MO, cat. D2650) at 800-fold the tested concentration and stored at -70 degrees C prior to their use. All drugs and investigational agents were tested over a range starting from a high concentration at or near the clinical Cmax and decreasing in half-log increments. If the clinical Cmax for an agent had not been determined, the highest concentration tested was 10 microM.
Cell Culture. All cells were maintained in an incubator at 37 degrees C and 5% CO2 with 95% humidity. The PDC lines were cultured according to standard operating procedures established by the NCI PDMR (https://pdmr.cancer.gov/sops/default.htm). All PDCs were thawed and cultured in Matrigel-coated flasks prepared with a working solution of 1X Ham's F-12 nutrient mix, without supplementation (Invitrogen, Waltham, MA, cat. 11765054), 100 U/mL penicillin-streptomycin (Invitrogen, cat. 15140122), and 2.5% Matrigel (Corning Inc., Corning, NY, cat. 354248) for the first three passages. The 354836-022-R-J1-PDC, 475296-252-R-J1-PDC, and 997726-040-R-J2-PDC lines were cultured in 6A media, which includes advanced DMEM/F-12 (Thermo Fisher Scientific, cat. 12634028), 10 mM HEPES (Thermo Fisher Scientific, cat. 15630080), 1X GlutaMAX supplement (Thermo Fisher Scientific, cat. 35050061), 0.1 mg/mL primocin (InvivoGen, San Diego, CA, cat. ant-pm-2), 10% defined fetal bovine serum, heat inactivated (HyClone Laboratories Inc., Logan, UT, cat. SH30070.03HI), 50% L-WRN conditioned media (ATCC, cat. CRL-3276), 1.25 mM N-Acetyl-L-cysteine (Sigma-Aldrich, cat. A9165), 10 mM nicotinamide (Sigma-Aldrich, cat. N0636), 1X B-27 supplement (Thermo Fisher Scientific, cat. 17504044), 1X N-2 supplement (Thermo Fisher Scientific, cat. 17502048), and 10 microM Y-27632 dihydrochloride (Tocris Bioscience, Bristol, United Kingdom, cat. 1254). The 624824-186-R-J2-PDC line was cultured in 6C/Colon 1B media, which includes all 6A media components plus 50 ng/mL human EGF recombinant protein (Thermo Fisher Scientific, cat. PHG0311). […]

[1] = compound alone, run of 04/24/2023
[2] = compound alone, run of 04/25/2023
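Further: spheroids exposed to agents for seven days before read-out.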

SMILES	IC50 (curve of compound)	viability, T/C (compound 0.0316 µM)	viability, T/C (compound 0.1 µM)	viability, T/C (compound 0.316 µM)	viability, T/C (compound 3.16 µM)	viability, T/C (compound 0.00316 µM)	viability, T/C (compound 1 µM)	viability, T/C (compound 10 µM)	other results
C=CC(=O)N1CCN(c2nc(=O)n(-c3c(C)ccnc3C(C)C)c3nc(-c4c(O)cccc4F)c(F)cc23)C(C)C1 (configuration not stated)		104% [middle of 4 runs]	98.4% [middle of 4 runs]	102% [middle of 4 runs]	56% [middle of 4 runs]				
CC(=O)c1c(C)c2cnc(Nc3ccc(N4CCNCC4)cn3)nc2n(C2CCCC2)c1=O	> 0.1 µM	101% [middle of 4 runs]	95.5% [middle of 4 runs]			104% [middle of 4 runs]			viability, T/C (compound 0.000316 µM): 105% [middle of 4 runs]; viability, T/C (compound 0.001 µM): 106% [middle of 4 runs]; viability, T/C (compound 0.01 µM): 104% (2×) and 102% and 99.6%
CC(C)NCC(C(=O)N1CCN(c2ncnc3c2C(C)CC3O)CC1)c1ccc(Cl)cc1 (configuration not stated)	> 10 µM	94.2% and 100% and 107% (2×)	100% (2×) and 93.4% and 105%	105% [middle of 4 runs]	93% [middle of 4 runs]		106% (2×) and 92.7% and 87.9%	99.5% and 102% (2×) and 99.9%	
CC(Cn1ccc(-c2ccc(C#N)c(Cl)c2)n1)NC(=O)c1cc(C(C)O)[nH]n1 (configuration not stated)	> 10 µM	92.4% and 103% (2×) and 102%	107% [middle of 4 runs]	102% [middle of 4 runs]	108% and 104% (2×) and 96.2%		95.1% and 107% (2×) and 91.3%	104% [middle of 4 runs]	
CC(Nc1ccc2c(c1)OCCn1cc(N3C(=O)OCC3C(F)F)nc1-2)C(N)=O (configuration not stated)		106% [middle of 8 runs]	105% [middle of 8 runs]	105% [middle of 8 runs]		107% [middle of 8 runs]	92.3% [middle of 8 runs]		viability, T/C (compound 0.01 µM): 106% [middle of 8 runs]; IC50 [1]: > 1 µM
CC(Nc1ncnc2nc[nH]c12)c1cc2cccc(Cl)c2c(=O)n1-c1ccccc1 (configuration not stated)		105% [middle of 8 runs]	98.9% [middle of 8 runs]	103% [middle of 8 runs]	105% [middle of 8 runs]		99.9% [middle of 8 runs]	97.6% [middle of 8 runs]	IC50 [2]: > 10 µM
CC1(C)CCC(CN2CCN(c3ccc(C(=O)NS(=O)(=O)c4ccc(NCC5CCOCC5)c([N+](=O)[O-])c4)c(Oc4cnc5[nH]ccc5c4)c3)CC2)=C(c2ccc(Cl)cc2)C1		105% [middle of 4 runs]	106% and 102% (2×) and 85.6%	107% [middle of 4 runs]	94.5% [middle of 4 runs]		104% [middle of 4 runs]		
CCCS(=O)(=O)Nc1ccc(F)c(C(=O)c2c[nH]c3ncc(-c4ccc(Cl)cc4)cc23)c1F	6.15 µM [middle of 4 runs]	104% [middle of 4 runs]		116% [middle of 4 runs]				7.9% [middle of 4 runs]	
CCN1CCN(Cc2ccc(Nc3ncc(F)c(-c4cc(F)c5nc(C)n(C(C)C)c5c4)n3)nc2)CC1	> 1 µM	106% and 101% (2×) and 97%	94.1% [middle of 4 runs]	86.5% [middle of 4 runs]		108% [middle of 4 runs]	87.5% [middle of 4 runs]		viability, T/C (compound 0.01 µM): 99.3% [middle of 4 runs]
COc1c(OCCCN2CCOCC2)ccc2c3n(c(=NC(=O)c4cnc(N)nc4)nc12)CCN3		97.6% [middle of 8 runs]	77.9% [middle of 8 runs]	65.8% [middle of 8 runs]		97.8% [middle of 8 runs]	54.2% [middle of 8 runs]		viability, T/C (compound 0.01 µM): 101% [middle of 8 runs]; IC50 [2]: > 1 µM
Cc1nc(NC(=O)N2CCCC2C(N)=O)sc1-c1ccnc(C(C)(C)C(F)(F)F)c1 (configuration not stated)		104% [middle of 8 runs]	103% [middle of 8 runs]	102% [middle of 8 runs]	93.5% [middle of 8 runs]		99.1% [middle of 8 runs]	75.9% [middle of 8 runs]	IC50 [1]: > 10 µM
Cn1cnc2c(F)c(Nc3ccc(Br)cc3Cl)c(C(=O)NOCCO)cc21	1.07 µM [middle of 4 runs]								viability, T/C (compound 0.00949 µM): 92.8% [middle of 4 runs]; viability, T/C (compound 0.03 µM): 89.9% [middle of 4 runs]; viability, T/C (compound 0.0949 µM): 93.2% [middle of 4 runs]; viability, T/C (compound 0.3 µM): 83% [middle of 4 runs]; viability, T/C (compound 0.949 µM): 52.5% [middle of 4 runs]; viability, T/C (compound 3 µM): 22% [middle of 4 runs]
Cn1nccc1Nc1nccc(-c2ccn(C(CO)c3ccc(Cl)c(F)c3)c(=O)c2)n1 (configuration not stated)	> 10 µM	105% (2×) and 95% and 106%	101% (2×) and 104% and 81.8%	103% [middle of 4 runs]	100% [middle of 4 runs]		101% [middle of 4 runs]	94% [middle of 4 runs]	
Cn1ncnc1[C@H]1c2n[nH]c(=O)c3cc(F)cc(c23)N[C@@H]1c1ccc(F)cc1	> 0.1 µM	104% [middle of 4 runs]	95.2% [middle of 4 runs]			103% [middle of 4 runs]			viability, T/C (compound 0.000316 µM): 104% [middle of 4 runs]; viability, T/C (compound 0.001 µM): 95% [middle of 4 runs]

Continued, in another order:

IC50 (curve of compound)	SMILES	viability, T/C (compound 0.0316 µM)	viability, T/C (compound 0.1 µM)	viability, T/C (compound 0.316 µM)	viability, T/C (compound 3.16 µM)	viability, T/C (compound 0.00316 µM)	viability, T/C (compound 1 µM)	viability, T/C (compound 10 µM)	other results
> 0.1 µM	CC(C)n1nc(-c2ccc3oc(N)nc3c2)c2c(N)ncnc21	95.5% [middle of 4 runs]	78.2% [middle of 4 runs]			99.9% [middle of 4 runs]			viability, T/C (compound 0.000316 µM): 103% [middle of 4 runs]; viability, T/C (compound 0.001 µM): 104% [middle of 4 runs]; viability, T/C (compound 0.01 µM): 98.2% [middle of 4 runs]
8.62 µM and > 10 µM and 9.21 µM	CC1(C)CCC(Nc2ncc(C(F)(F)F)c(-c3c[nH]c4c(P(C)(C)=O)c(C#N)ccc34)n2)CN1 (configuration not stated)	107% and 114% (2×) and 124%	99% [middle of 4 runs]	88.8% [middle of 4 runs]	66.8% [middle of 4 runs]		70.6% [middle of 4 runs]	63.4% [middle of 4 runs]	
> 10 µM	CNC(=O)c1ccc(N2C(=S)N(c3ccc(C#N)c(C(F)(F)F)c3)C(=O)C2(C)C)cc1F	105% (2×) and 88.4% and 94.7%	104% (2×) and 91.1% and 96.9%	102% (2×) and 88.4% and 109%	107% [middle of 4 runs]		102% [middle of 4 runs]	113% and 111% (2×) and 90%	
> 10 µM	C[C@@H](NC(=O)c1ncnc(N)c1Cl)c1ncc(C(=O)Nc2cc(C(F)(F)F)c(Cl)cn2)s1	108% [middle of 4 runs]	110% [middle of 4 runs]	119% [middle of 4 runs]	120% [middle of 4 runs]		122% [middle of 4 runs]	109% [middle of 4 runs]	
